Measurements published in PubChem BioAssay (NCI).
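Each compound was tested at five concentrations against cells in 96-well plates for 48 hours. GI50: concentration for 50% inhibition of growth. TGI is the concentration that stops growth completely.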

Key:
Assay in all cases: NCI tumour cell line growth inhibition, 48 h
786-0 renal = tested on: 786-0 renal
A498 renal = tested on: A498 renal
A549 NSCLC = tested on: A549 NSCLC
ACHN renal = tested on: ACHN renal
BT-549 breast = tested on: BT-549 breast
CAKI-1 renal = tested on: CAKI-1 renal
CCRF-CEM leukemia = tested on: CCRF-CEM leukemia
COLO 205 colon = tested on: COLO 205 colon
DU-145 prostate = tested on: DU-145 prostate
EKVX NSCLC = tested on: EKVX NSCLC
HCC-2998 colon = tested on: HCC-2998 colon
HCT-116 colon = tested on: HCT-116 colon
HCT-15 colon = tested on: HCT-15 colon
HL-60(TB) leukemia = tested on: HL-60(TB) leukemia
HOP-62 NSCLC = tested on: HOP-62 NSCLC
HOP-92 NSCLC = tested on: HOP-92 NSCLC
HS 578T breast = tested on: HS 578T breast
HT29 colon = tested on: HT29 colon
IGROV1 ovarian = tested on: IGROV1 ovarian
K-562 leukemia = tested on: K-562 leukemia
KM12 colon = tested on: KM12 colon
LOX IMVI melanoma = tested on: LOX IMVI melanoma
MALME-3M melanoma = tested on: MALME-3M melanoma
MCF7 breast = tested on: MCF7 breast
MDA-MB-231 breast = tested on: MDA-MB-231 breast
MDA-MB-435 = tested on: MDA-MB-435
MOLT-4 leukemia = tested on: MOLT-4 leukemia
NCI-H226 lung = tested on: NCI-H226 lung
NCI-H23 lung = tested on: NCI-H23 lung
NCI-H460 lung = tested on: NCI-H460 lung
NCI-H522 lung = tested on: NCI-H522 lung
NCI/ADR-RES ovarian = tested on: NCI/ADR-RES ovarian
OVCAR-3 ovarian = tested on: OVCAR-3 ovarian
OVCAR-4 ovarian = tested on: OVCAR-4 ovarian
OVCAR-5 ovarian = tested on: OVCAR-5 ovarian
OVCAR-8 ovarian = tested on: OVCAR-8 ovarian
PC-3 prostate = tested on: PC-3 prostate
RPMI-8226 leukemia = tested on: RPMI-8226 leukemia
RXF 393 renal = tested on: RXF 393 renal
SF-268 CNS = tested on: SF-268 CNS
SF-295 CNS = tested on: SF-295 CNS
SF-539 CNS = tested on: SF-539 CNS
SK-MEL-2 melanoma = tested on: SK-MEL-2 melanoma
SK-MEL-28 melanoma = tested on: SK-MEL-28 melanoma
SK-MEL-5 melanoma = tested on: SK-MEL-5 melanoma
SK-OV-3 ovarian = tested on: SK-OV-3 ovarian
SN12C renal = tested on: SN12C renal
SNB-19 CNS = tested on: SNB-19 CNS
SNB-75 CNS = tested on: SNB-75 CNS
SR leukemia = tested on: SR leukemia
SW-620 colon = tested on: SW-620 colon
T-47D breast = tested on: T-47D breast
TK-10 renal = tested on: TK-10 renal
U251 CNS = tested on: U251 CNS
UACC-257 melanoma = tested on: UACC-257 melanoma
UACC-62 melanoma = tested on: UACC-62 melanoma
UO-31 renal = tested on: UO-31 renal

C[C@]12CC[C@H]3[C@@H](CC=C4C[C@@H](O)CC[C@@]43C)[C@@H]1CC[C@@H]2[C@](C)(O)CCc1cccnc1
GI50 (786-0 renal): 5.76 µM
TGI (786-0 renal): > 100 µM
GI50 (A498 renal): 2740 nM
TGI (A498 renal): 62.1 µM
GI50 (A549 NSCLC): 4.44 µM
TGI (A549 NSCLC): > 100 µM
GI50 (ACHN renal): 4.53 µM
TGI (ACHN renal): > 100 µM
GI50 (BT-549 breast): 1690 nM
TGI (BT-549 breast): 6.55 µM
GI50 (CAKI-1 renal): 7.1 µM
TGI (CAKI-1 renal): > 100 µM
GI50 (CCRF-CEM leukemia): 4.1 µM
TGI (CCRF-CEM leukemia): > 100 µM
GI50 (COLO 205 colon): 3.16 µM
TGI (COLO 205 colon): > 100 µM
GI50 (DU-145 prostate): 3.48 µM
TGI (DU-145 prostate): > 100 µM
GI50 (EKVX NSCLC): 1590 nM
TGI (EKVX NSCLC): > 100 µM
GI50 (HCC-2998 colon): 4.99 µM
TGI (HCC-2998 colon): > 100 µM
GI50 (HCT-116 colon): 3.42 µM
TGI (HCT-116 colon): > 100 µM
GI50 (HCT-15 colon): 4.29 µM
TGI (HCT-15 colon): > 100 µM
GI50 (HL-60(TB) leukemia): 2420 nM
TGI (HL-60(TB) leukemia): 7.04 µM
GI50 (HOP-62 NSCLC): 9.27 µM
TGI (HOP-62 NSCLC): > 100 µM
GI50 (HOP-92 NSCLC): 2110 nM
TGI (HOP-92 NSCLC): > 100 µM
GI50 (HS 578T breast): 3.41 µM
TGI (HS 578T breast): > 100 µM
GI50 (HT29 colon): 4.6 µM
TGI (HT29 colon): > 100 µM
GI50 (IGROV1 ovarian): 6.37 µM
TGI (IGROV1 ovarian): > 100 µM
GI50 (K-562 leukemia): 2130 nM
TGI (K-562 leukemia): > 100 µM
GI50 (KM12 colon): 5.55 µM
TGI (KM12 colon): > 100 µM
GI50 (LOX IMVI melanoma): 5.63 µM
TGI (LOX IMVI melanoma): > 100 µM
GI50 (MALME-3M melanoma): 2570 nM
TGI (MALME-3M melanoma): 8.14 µM
GI50 (MCF7 breast): 2280 nM
TGI (MCF7 breast): > 100 µM
GI50 (MDA-MB-231 breast): 6.39 µM
TGI (MDA-MB-231 breast): > 100 µM
GI50 (MDA-MB-435): 4.6 µM
TGI (MDA-MB-435): > 100 µM
GI50 (MOLT-4 leukemia): 2750 nM
TGI (MOLT-4 leukemia): 24 µM
GI50 (NCI-H226 lung): 3.7 µM
TGI (NCI-H226 lung): 55 µM
GI50 (NCI-H23 lung): 3.05 µM
TGI (NCI-H23 lung): > 100 µM
GI50 (NCI-H460 lung): 3.99 µM
TGI (NCI-H460 lung): > 100 µM
GI50 (NCI-H522 lung): 2090 nM
TGI (NCI-H522 lung): 7.79 µM
GI50 (NCI/ADR-RES ovarian): 3.43 µM
TGI (NCI/ADR-RES ovarian): > 100 µM
GI50 (OVCAR-3 ovarian): 9.14 µM
TGI (OVCAR-3 ovarian): > 100 µM
GI50 (OVCAR-4 ovarian): 1250 nM
TGI (OVCAR-4 ovarian): > 100 µM
GI50 (OVCAR-5 ovarian): > 100 µM
TGI (OVCAR-5 ovarian): > 100 µM
GI50 (OVCAR-8 ovarian): 4.82 µM
TGI (OVCAR-8 ovarian): > 100 µM
GI50 (PC-3 prostate): 3.55 µM
TGI (PC-3 prostate): > 100 µM
GI50 (RPMI-8226 leukemia): 1880 nM
TGI (RPMI-8226 leukemia): 49.9 µM
GI50 (RXF 393 renal): 1940 nM
TGI (RXF 393 renal): 7.78 µM
GI50 (SF-268 CNS): 5.3 µM
TGI (SF-268 CNS): > 100 µM
GI50 (SF-295 CNS): 2210 nM
TGI (SF-295 CNS): 9.64 µM
GI50 (SF-539 CNS): 6.11 µM
TGI (SF-539 CNS): > 100 µM
GI50 (SK-MEL-2 melanoma): 7.44 µM
TGI (SK-MEL-2 melanoma): > 100 µM
GI50 (SK-MEL-28 melanoma): 4.27 µM
TGI (SK-MEL-28 melanoma): > 100 µM
GI50 (SK-MEL-5 melanoma): 1010 nM
TGI (SK-MEL-5 melanoma): 2600 nM
GI50 (SK-OV-3 ovarian): 6.49 µM
TGI (SK-OV-3 ovarian): > 100 µM
GI50 (SN12C renal): 47.1 µM
TGI (SN12C renal): > 100 µM
GI50 (SNB-19 CNS): 6.77 µM
TGI (SNB-19 CNS): > 100 µM
GI50 (SNB-75 CNS): 2920 nM
TGI (SNB-75 CNS): > 100 µM
GI50 (SR leukemia): 2950 nM
TGI (SR leukemia): > 100 µM
GI50 (SW-620 colon): 5.49 µM
TGI (SW-620 colon): > 100 µM
GI50 (T-47D breast): 2090 nM
TGI (T-47D breast): > 100 µM
GI50 (TK-10 renal): 7.58 µM
TGI (TK-10 renal): > 100 µM
GI50 (U251 CNS): 6.5 µM
TGI (U251 CNS): > 100 µM
GI50 (UACC-257 melanoma): 3.03 µM
TGI (UACC-257 melanoma): > 100 µM
GI50 (UACC-62 melanoma): 3.19 µM
TGI (UACC-62 melanoma): > 100 µM
GI50 (UO-31 renal): 1970 nM
TGI (UO-31 renal): > 100 µM
